# According to the Kinase Knowledgebase extract (Sharma et al. 2016):
# Molecular target: PIK3CG (human) (UniProt P48736)
# Test: Inhibition of PIK3CG Kinase Activity
# PIK3CG (human), sequence (P48736 whole entry, looked up): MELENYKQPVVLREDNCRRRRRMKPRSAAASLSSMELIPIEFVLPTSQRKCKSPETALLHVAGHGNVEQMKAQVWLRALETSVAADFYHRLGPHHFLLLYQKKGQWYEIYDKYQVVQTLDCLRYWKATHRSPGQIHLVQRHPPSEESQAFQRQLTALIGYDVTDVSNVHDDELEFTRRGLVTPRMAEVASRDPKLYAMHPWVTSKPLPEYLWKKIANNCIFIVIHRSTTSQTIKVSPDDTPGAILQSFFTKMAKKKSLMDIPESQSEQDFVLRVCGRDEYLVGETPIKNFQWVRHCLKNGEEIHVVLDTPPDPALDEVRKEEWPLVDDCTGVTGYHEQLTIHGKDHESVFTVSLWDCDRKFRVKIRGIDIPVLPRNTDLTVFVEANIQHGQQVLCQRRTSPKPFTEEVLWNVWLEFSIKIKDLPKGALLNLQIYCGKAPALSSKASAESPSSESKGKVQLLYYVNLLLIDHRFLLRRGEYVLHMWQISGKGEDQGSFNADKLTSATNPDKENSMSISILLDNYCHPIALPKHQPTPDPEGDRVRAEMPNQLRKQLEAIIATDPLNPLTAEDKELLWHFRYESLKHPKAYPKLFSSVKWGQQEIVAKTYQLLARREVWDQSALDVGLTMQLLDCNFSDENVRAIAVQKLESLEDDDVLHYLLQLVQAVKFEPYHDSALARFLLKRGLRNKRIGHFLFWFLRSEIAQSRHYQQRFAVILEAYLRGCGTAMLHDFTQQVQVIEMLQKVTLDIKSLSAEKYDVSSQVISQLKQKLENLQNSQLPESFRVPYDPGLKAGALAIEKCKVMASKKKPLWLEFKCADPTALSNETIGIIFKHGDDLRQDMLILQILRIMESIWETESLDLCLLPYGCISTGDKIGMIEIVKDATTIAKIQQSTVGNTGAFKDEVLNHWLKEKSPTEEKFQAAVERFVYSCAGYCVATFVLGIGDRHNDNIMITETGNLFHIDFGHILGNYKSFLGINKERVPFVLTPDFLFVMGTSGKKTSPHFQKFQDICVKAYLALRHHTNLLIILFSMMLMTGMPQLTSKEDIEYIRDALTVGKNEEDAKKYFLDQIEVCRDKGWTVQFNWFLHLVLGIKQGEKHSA
row,SMILES,Ki [nM]
1,CCn1cc(N2C(=O)c3ccc(-c4cnc(OC)c(OC(F)F)c4)nc3[C@H]2C)cn1,< 100
2,COc1cc(-c2ccc3c(n2)C2(CCOCC2)N(c2cnn(CC(F)(F)F)c2)C3=O)cnc1OC,< 100
3,COc1cc(-c2ccc3c(n2)CN(c2ccnc(OCC(F)F)c2)C3=O)cnc1OC,100 to 490
4,COc1cc(-c2ccc3c(n2)C(C)N(c2ccn(CC(F)(F)F)n2)C3=O)cnc1OC (stereo not drawn),< 100
5,COc1cc(-c2ccc3c(n2)CN(c2ccc(N4CCC[C@@H]4CO)nc2)C3=O)cnc1OC,< 100
6,COc1cc(-c2ccc3c(n2)[C@@H](C)N(c2cn[nH]c2)C3=O)cnc1OC,< 100
7,COc1cc(-c2ccc3c(n2)C(C)N(c2cncc(C(O)C(F)(F)F)c2)C3=O)cnc1OC (stereo not drawn),< 100
8,COc1cc(-c2ccc3c(n2)CN(c2cnn(C(F)(F)C(N)=O)c2)C3=O)cnc1OC,< 100
9,COc1cc(-c2ccc3c(n2)CN(c2ccc(OCC4OCCO4)nc2)C3=O)cnc1OC,< 100
10,COc1cc(-c2ccc3c(c2)CN(c2cnn(CCCO)c2)C3=O)cnc1OC,100 to 490
11,COc1cc(-c2ccc3c(c2)CN(c2cnn(CC(C)C)c2)C3=O)cnc1OC,100 to 490
12,CCOc1cc(-c2cc(C)c3c(c2)CN(c2cnn(CC#N)c2)C3=O)cnc1OCC,< 100
13,COc1cc(-c2ccc3c(n2)CN(c2cnn(Cc4ccn(C)n4)c2)C3=O)cnc1OC,< 100
14,COc1cc(-c2ccc3c(n2)CN(c2ccc(N4CCOC(CO)C4)nc2)C3=O)cnc1OC (stereo not drawn),100 to 490
15,COc1cc(-c2ccc3c(n2)C(OC)N(c2cnn(CC(F)(F)F)c2)C3=O)cnc1OC (stereo not drawn),< 100
16,Cc1cc(-c2cncc(C(F)(F)F)c2)cc2c1C(=O)N(c1cnn(CC(F)(F)F)c1)C2C (stereo not drawn),< 100
17,COc1ncc(-c2cc(C)c3c(n2)C(C)N(c2cnn(CC(F)F)c2)C3=O)cc1C(=O)O (stereo not drawn),< 100
18,COc1cc(-c2ccc3c(c2)CN(c2nncs2)C3=O)cnc1OC,100 to 490
19,COc1cc(-c2ccc3c(n2)C(C)N(c2cccc(C(C)(C)C#N)n2)C3=O)cnc1OC (stereo not drawn),< 100
20,COc1cc(-c2ccc3c(n2)CN(c2cnn(CCC#N)c2)C3=O)cnc1OC,< 100

# Continued, values first:
row,Ki [nM],SMILES
1,< 100,Cc1cc(-c2cncc(OC(F)F)c2)nc2c1C(=O)N(c1cncc(C(C)(C)C#N)c1)C2
2,< 100,Cc1cc(-c2cncc(OCC(F)(F)F)c2)nc2c1C(=O)N(c1cnn(CC(F)(F)F)c1)[C@H]2C
3,< 100,CCn1ccc(N2Cc3nc(-c4cncc(OC)c4)cc(C)c3C2=O)n1
4,< 100,COc1ncc(-c2cc(C)c3c(n2)CN(c2ccn(C4COC4)n2)C3=O)cc1OCC1CC1
5,< 100,Cc1cc(-c2cncc(OCC(F)F)c2)nc2c1C(=O)N(c1cnn(CC(F)(F)F)c1)C21CCOCC1
6,< 100,COc1cncc(-c2cc(C)c3c(n2)CN(c2cnn(CC#N)c2)C3=O)c1
7,< 100,CCn1cc(N2Cc3nc(-c4cnc(OC)c(OC(F)F)c4)cc(C)c3C2=O)cn1
8,< 100,CCOc1cc(-c2cc(C)c3c(n2)CN(c2cnn(CC#N)c2)C3=O)cnc1OCC
9,< 100,Cc1cc(-c2cncc(C(F)(F)F)c2)nc2c1C(=O)N(c1cnn(CC#N)c1)C2
10,< 100,Cc1cc(-c2cncc(NS(=O)(=O)C(C)C)c2)nc2c1C(=O)N(c1cnn(CC(F)(F)F)c1)C2(C)C
11,< 100,COCCC1c2nc(-c3cnc(OC)c(OC)c3)cc(C)c2C(=O)N1c1cnn(CC(F)(F)F)c1 (stereo not drawn)
12,100 to 490,COc1ccc(-c2cc(C)c3c(n2)CN(c2cnn(CC(F)(F)F)c2)C3=O)c(OC)c1
13,< 100,COc1ncc(-c2cc(C)c3c(n2)C(C)(C)N(c2cnn(CC(F)(F)F)c2)C3=O)cc1C(=O)NC1COC1
14,< 100,CO[C@H]1c2nc(-c3cncc(OCC(F)F)c3)cc(C)c2C(=O)N1c1cnn(CC(F)(F)F)c1
15,< 100,COc1cncc(-c2cc(C)c3c(n2)CN(c2cn(CC(F)(F)F)cn2)C3=O)c1
16,< 100,C#CCNC(=O)c1cncc(-c2cc(C)c3c(n2)C(C)(C)N(c2cnn(CC(F)(F)F)c2)C3=O)c1
17,< 100,Cc1cc(-c2cncc(OC(F)F)c2)nc2c1C(=O)N(c1cnn(CC(F)(F)F)c1)C2C (stereo not drawn)
18,< 100,CCn1cc(N2Cc3nc(-c4cnc(OC)c(OC)c4)cc(C)c3C2=O)nn1
